As usually defined, the inhibition is the drop in the measured response relative to a control, in per cent.

Holding throughout (assay): Kinase panel
Assay type in all cases: biochemical

Assay [1] has as its target T1, Pyk2(h) (Homo sapiens, UniProt Q14289).
T1 construct: purchased Millipore KinaseProfiler

Assay [2] has as its target T2, PKCβII(h) (Homo sapiens, UniProt P05771).
T2 construct: purchased Millipore KinaseProfiler

Assay [3] deals with T3, CDK7/cyclinH/MAT1(h) (Homo sapiens, UniProt P50613).
T3 construct: purchased Millipore KinaseProfiler
T3 sequence (P50613 whole entry): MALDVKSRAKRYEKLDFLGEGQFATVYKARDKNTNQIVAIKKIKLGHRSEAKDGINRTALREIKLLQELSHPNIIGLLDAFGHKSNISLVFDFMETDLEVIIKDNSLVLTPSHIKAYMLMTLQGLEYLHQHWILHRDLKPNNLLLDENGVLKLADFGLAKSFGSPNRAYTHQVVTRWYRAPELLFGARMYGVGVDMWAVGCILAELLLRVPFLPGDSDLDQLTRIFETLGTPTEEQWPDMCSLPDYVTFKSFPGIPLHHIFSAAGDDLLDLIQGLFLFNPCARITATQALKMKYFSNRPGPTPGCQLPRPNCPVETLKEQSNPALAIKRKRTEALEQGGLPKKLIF
T3 sequence (P51946 whole entry partner): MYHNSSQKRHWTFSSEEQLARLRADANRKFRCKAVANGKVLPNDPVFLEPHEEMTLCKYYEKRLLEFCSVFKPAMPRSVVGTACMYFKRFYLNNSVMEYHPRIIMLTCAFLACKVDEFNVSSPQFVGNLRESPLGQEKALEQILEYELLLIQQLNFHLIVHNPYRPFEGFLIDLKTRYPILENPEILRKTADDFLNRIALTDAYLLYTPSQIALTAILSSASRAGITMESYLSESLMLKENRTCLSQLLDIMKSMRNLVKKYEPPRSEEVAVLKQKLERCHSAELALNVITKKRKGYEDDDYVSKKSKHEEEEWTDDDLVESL
T3 sequence (P51948 whole entry partner): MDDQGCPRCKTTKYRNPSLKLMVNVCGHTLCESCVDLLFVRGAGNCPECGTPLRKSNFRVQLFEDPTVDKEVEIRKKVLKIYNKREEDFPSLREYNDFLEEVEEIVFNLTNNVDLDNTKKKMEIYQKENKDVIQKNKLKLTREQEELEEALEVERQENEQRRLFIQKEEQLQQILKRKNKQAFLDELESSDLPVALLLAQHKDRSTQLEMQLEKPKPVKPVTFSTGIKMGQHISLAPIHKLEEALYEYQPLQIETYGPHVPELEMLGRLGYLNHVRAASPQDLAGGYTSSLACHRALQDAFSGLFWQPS

Assay [4] concerns the target T4, Axl(h) (Homo sapiens, UniProt P30530).
T4 construct: purchased Millipore KinaseProfiler
T4 sequence (P30530 26-894): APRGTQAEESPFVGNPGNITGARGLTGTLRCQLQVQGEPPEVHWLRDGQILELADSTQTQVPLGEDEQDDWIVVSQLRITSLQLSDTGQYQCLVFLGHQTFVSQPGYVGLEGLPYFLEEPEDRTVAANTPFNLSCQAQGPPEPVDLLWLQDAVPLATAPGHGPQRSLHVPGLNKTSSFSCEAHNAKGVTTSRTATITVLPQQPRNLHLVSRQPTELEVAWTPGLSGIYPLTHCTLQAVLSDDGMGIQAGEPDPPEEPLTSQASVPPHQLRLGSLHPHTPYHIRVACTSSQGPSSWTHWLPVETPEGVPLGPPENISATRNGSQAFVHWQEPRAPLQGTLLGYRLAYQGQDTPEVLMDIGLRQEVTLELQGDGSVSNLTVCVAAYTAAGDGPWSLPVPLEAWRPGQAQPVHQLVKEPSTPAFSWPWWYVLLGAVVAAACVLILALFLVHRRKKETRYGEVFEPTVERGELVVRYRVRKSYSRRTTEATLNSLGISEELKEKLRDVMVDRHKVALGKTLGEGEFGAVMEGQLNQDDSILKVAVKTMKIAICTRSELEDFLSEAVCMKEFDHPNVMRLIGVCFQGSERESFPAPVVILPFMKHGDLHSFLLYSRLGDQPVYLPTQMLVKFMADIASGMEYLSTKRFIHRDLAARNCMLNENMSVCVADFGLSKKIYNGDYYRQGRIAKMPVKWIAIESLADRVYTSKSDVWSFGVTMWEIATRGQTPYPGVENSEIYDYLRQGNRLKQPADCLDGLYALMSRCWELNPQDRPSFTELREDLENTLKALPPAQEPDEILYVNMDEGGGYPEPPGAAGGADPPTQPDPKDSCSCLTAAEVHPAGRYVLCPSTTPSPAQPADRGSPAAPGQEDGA

Assay [5] concerns the target T5, FGFR1(h) (Homo sapiens, UniProt P11362).
T5 construct: purchased Millipore KinaseProfiler

Assay [6] deals with T6, CaMKIIβ(h) (Homo sapiens, UniProt Q13554).
T6 construct: purchased Millipore KinaseProfiler
T6 sequence (Q13554 whole entry): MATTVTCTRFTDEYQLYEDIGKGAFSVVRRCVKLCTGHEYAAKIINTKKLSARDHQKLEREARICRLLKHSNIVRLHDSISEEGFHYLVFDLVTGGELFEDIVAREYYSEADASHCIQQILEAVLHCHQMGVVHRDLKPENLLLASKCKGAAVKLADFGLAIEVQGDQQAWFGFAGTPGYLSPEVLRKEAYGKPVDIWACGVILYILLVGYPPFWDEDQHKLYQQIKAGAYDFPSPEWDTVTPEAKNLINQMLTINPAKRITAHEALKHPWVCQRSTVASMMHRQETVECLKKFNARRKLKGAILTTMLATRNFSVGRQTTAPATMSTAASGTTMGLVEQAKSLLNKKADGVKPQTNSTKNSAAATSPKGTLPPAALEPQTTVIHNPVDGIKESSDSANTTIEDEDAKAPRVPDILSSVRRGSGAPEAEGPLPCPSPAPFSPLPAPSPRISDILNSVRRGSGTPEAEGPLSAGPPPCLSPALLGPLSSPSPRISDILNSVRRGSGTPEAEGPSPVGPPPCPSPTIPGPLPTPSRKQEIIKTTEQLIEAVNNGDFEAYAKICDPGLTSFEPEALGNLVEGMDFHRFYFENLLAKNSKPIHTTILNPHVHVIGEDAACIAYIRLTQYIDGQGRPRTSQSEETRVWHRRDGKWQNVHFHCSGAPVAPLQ

Assay [7] has as its target T7, CDK2/cyclinE(h) (Homo sapiens, UniProt P24941).
T7 construct: purchased Millipore KinaseProfiler

Assay [8] has as its target T8, TSSK1(h) (Homo sapiens, UniProt Q9BXA7).
T8 construct: purchased Millipore KinaseProfiler
T8 sequence (Q9BXA7 1-367): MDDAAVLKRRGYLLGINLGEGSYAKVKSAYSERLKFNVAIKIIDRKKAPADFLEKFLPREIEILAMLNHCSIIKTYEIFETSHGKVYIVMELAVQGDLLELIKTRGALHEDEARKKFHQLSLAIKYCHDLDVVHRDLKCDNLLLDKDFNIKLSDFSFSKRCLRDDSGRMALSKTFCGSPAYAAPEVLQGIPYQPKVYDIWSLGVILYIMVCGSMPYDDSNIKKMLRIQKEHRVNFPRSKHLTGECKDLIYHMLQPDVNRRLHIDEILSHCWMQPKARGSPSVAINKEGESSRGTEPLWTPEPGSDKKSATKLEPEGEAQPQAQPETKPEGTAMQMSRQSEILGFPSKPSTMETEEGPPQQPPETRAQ

In assay [9] the target is T9, Ret (V804L)(h) (Homo sapiens, UniProt P07949, V804L).
T9 construct: purchased Millipore KinaseProfiler

Assay [10] deals with T10, EphB4(h) (Homo sapiens, UniProt P54760).
T10 construct: purchased Millipore KinaseProfiler
T10 sequence (P54760 16-987): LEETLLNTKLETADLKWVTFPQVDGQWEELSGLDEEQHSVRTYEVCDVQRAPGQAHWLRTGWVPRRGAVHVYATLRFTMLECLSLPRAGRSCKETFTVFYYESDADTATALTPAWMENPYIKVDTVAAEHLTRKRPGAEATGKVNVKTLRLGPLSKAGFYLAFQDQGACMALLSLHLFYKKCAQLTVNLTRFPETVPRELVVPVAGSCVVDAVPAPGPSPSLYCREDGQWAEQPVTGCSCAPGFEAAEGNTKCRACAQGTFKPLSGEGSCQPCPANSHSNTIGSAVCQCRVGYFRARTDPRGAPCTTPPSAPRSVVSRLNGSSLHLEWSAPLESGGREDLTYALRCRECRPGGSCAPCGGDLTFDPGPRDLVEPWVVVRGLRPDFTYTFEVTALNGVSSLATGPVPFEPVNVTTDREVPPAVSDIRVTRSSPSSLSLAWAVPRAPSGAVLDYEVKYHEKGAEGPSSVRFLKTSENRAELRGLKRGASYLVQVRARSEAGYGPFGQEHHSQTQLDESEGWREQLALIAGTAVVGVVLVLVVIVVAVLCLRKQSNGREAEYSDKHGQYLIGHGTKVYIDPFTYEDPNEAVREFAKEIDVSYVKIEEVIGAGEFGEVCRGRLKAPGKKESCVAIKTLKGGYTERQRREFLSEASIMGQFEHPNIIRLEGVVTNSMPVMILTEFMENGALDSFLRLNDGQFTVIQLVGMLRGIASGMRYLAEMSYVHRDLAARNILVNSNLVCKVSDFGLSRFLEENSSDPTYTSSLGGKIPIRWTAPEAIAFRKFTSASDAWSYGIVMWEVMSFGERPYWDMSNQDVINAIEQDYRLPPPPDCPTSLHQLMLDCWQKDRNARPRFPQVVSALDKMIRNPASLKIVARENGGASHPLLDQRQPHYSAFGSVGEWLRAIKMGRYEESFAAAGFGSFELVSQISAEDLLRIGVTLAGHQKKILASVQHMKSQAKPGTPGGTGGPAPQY

Assay [11] has as its target T11, CK1γ3(h) (Homo sapiens, UniProt Q9Y6M4).
T11 construct: purchased Millipore KinaseProfiler

Read-outs that look alike come from different tables or passages of the source.

T5 sequence (P11362 22-822): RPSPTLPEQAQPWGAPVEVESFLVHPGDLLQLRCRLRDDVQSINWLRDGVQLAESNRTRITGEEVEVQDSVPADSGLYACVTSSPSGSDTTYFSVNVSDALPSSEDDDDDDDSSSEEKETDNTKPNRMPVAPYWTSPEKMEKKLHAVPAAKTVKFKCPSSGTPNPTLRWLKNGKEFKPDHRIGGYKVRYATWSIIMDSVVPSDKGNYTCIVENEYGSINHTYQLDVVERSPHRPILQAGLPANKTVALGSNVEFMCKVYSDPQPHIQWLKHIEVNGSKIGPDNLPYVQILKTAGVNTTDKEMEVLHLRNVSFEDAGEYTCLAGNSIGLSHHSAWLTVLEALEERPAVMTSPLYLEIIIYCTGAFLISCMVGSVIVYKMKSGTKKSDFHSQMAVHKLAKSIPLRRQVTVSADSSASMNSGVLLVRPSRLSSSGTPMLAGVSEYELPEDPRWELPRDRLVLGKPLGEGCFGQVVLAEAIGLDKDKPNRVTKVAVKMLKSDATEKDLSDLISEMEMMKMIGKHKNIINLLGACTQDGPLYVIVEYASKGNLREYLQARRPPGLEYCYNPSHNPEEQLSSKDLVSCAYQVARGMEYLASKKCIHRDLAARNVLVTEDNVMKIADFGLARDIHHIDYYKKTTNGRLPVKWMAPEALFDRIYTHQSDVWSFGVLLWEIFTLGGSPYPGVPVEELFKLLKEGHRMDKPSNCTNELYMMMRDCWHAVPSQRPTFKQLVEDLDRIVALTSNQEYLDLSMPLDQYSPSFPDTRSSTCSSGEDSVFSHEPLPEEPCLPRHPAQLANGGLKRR
T1 sequence (Q14289 whole entry): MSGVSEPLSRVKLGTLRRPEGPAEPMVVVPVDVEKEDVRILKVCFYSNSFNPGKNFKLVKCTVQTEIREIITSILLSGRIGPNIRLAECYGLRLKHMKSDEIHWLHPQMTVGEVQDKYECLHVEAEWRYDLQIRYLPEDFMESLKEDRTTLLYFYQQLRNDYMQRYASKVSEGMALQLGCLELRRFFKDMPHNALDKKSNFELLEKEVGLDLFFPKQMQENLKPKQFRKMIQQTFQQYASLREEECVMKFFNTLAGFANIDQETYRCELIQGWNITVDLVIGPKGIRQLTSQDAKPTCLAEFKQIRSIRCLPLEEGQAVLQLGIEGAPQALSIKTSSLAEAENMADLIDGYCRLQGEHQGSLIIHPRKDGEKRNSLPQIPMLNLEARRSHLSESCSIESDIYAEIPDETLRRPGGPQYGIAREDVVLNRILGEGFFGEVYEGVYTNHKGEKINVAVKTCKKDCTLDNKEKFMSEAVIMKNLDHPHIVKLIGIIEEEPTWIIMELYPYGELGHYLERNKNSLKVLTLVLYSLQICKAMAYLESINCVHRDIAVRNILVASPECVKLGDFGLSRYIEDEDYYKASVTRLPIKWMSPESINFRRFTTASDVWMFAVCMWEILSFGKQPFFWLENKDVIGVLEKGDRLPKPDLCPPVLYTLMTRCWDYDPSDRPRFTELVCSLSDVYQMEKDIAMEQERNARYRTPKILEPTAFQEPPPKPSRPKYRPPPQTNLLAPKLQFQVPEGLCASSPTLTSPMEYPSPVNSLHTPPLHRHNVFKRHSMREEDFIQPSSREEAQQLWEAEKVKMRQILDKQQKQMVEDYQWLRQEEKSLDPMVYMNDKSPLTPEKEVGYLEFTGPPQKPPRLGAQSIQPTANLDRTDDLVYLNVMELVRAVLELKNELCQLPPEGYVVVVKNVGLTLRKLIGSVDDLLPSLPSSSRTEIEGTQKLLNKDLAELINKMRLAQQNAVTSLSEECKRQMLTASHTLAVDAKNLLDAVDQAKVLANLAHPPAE
T2 sequence (P05771 1-673 isoform P05771-2): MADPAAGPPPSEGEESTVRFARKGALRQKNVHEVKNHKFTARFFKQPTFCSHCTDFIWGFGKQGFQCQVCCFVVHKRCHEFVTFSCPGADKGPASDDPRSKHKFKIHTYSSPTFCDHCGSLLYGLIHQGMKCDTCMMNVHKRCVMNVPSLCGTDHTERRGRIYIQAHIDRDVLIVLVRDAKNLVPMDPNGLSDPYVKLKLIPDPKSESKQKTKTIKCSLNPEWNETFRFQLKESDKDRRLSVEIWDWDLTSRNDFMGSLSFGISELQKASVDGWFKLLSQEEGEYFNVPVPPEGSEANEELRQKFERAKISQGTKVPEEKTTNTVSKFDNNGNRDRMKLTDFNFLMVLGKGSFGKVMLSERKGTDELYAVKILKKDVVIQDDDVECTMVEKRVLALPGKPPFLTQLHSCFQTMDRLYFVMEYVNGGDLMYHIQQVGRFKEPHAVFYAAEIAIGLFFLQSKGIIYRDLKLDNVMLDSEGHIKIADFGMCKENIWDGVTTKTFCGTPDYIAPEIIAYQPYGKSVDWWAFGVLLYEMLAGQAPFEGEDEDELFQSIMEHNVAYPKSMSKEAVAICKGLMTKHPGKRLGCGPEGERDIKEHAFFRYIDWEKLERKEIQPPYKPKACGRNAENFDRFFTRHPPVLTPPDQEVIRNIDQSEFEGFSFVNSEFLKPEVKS
T11 sequence (Q9Y6M4 whole entry): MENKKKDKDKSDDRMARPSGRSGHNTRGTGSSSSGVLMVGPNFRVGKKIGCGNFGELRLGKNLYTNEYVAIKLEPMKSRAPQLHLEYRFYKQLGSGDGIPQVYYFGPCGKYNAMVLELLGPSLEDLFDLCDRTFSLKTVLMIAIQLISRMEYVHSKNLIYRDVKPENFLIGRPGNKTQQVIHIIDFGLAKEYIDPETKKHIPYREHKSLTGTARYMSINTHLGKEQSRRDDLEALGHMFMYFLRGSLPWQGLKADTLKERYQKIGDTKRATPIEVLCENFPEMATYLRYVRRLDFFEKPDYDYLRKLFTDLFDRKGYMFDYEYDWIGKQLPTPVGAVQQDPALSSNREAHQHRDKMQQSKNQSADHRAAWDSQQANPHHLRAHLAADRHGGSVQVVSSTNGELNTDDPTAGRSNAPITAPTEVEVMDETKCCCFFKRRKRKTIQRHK

Regarding `Cn1ncc(Cl)c1-c1cc(C(=O)N[C@H](CN)Cc2cccc(F)c2)sc1Cl` [GSK2110183], the inhibition at 0.5 µM in assay [1] was -7%; in [2], 2%; in [3] it was 62%; in [4] it was 6%; in assay [5] it was -8%; in assay [6], 5%. For the same compound, the inhibition at 0.5 µM in assay [7] is 3%; in assay [8], 16%; in assay [9], -5%; in assay [10], 0%; in [11], 7%. Moreover, the inhibition at 10 µM was 2% in assay [1]; 75% in assay [2]; 96% in [3]; 37% in assay [4]; -5% in assay [5]; 61% in [6]. Also, the inhibition at 10 µM came out at 12% in assay [7]; 84% in [8]; 16% in [9]; 10% in assay [10]; 28% in assay [11].
With `Cn1ncc(Cl)c1-c1cc(C(=O)N[C@H](CN)Cc2ccc(F)c(F)c2)oc1Cl` [GSK2141795], the inhibition at 0.5 µM in assay [1] (0.5 µM, read-out: % Inhibition) was 1%; in [2] (0.5 µM, read-out: % Inhibition), 44%; in assay [3] (0.5 µM, read-out: % Inhibition) it was 64%; in assay [4] (0.5 µM, read-out: % Inhibition), -2%; in assay [5] (0.5 µM, read-out: % Inhibition), -15%; in assay [6] (0.5 µM, read-out: % Inhibition), 15%. The inhibition at 0.5 µM in assay [7] (0.5 µM, read-out: % Inhibition) was -2%; in assay [8] (0.5 µM, read-out: % Inhibition) it was 21%; in [9] (0.5 µM, read-out: % Inhibition), 4%; in assay [10] (0.5 µM, read-out: % Inhibition), 5%; in assay [11] (0.5 µM, read-out: % Inhibition) it was -14%. Also, the inhibition at 10 µM is 16% in assay [1] (10 µM, read-out: % Inhibition); 91% in assay [2] (10 µM, read-out: % Inhibition); 101% in [3] (10 µM, read-out: % Inhibition); -6% in assay [4] (10 µM, read-out: % Inhibition); -6% in [5] (10 µM, read-out: % Inhibition); 75% in assay [6] (10 µM, read-out: % Inhibition). Further, the inhibition at 10 µM in assay [7] (10 µM, read-out: % Inhibition) worked out at 29%; in [8] (10 µM, read-out: % Inhibition), 83%; in assay [9] (10 µM, read-out: % Inhibition) it was 21%; in assay [10] (10 µM, read-out: % Inhibition) it was 5%; in assay [11] (10 µM, read-out: % Inhibition) it was 51%.

(Values after publication PMC4076210, “Discovery of Novel AKT Inhibitors with Enhanced Anti-Tumor Effects in Combination with the MEK Inhibitor” (PLoS ONE, 2014).)
